This is an account of results in PMC9704079, “Enhancement of the anticancer effect of atorvastatin-loaded nanoemulsions by improving oral absorption via multivalent intestinal transporter-targeting lipids” (Drug Delivery, 2022).

Structures are written as SMILES. Some results are limits rather than exact numbers.

Series [1] deals with 4T1 (murine stage IV breast cancer) cells. It is filed as cell-based. The following applies: mouse, 24 h. As for the experimental part:
(§1) After incubation for 1 h, the absorbance at 450 nm was measured and the percentage of viable cells was calculated by comparison with the absorbance of untreated cells (100% viability).

Series [2] concerns MCF-7 (human breast adenocarcinoma) cells. It is filed as cell-based. Particulars: 24 h. The method, then: as §1
Series [3] concerns 4T1 cells. The series can be described thus: In vitro 4T1 cell adhesion to ECM components. Type of series: cell-based, murine. The following applies: 100 µg/mL ATV, 1.5 h; fibronectin, collagen I, collagen IV, laminin I, fibrinogen. The method, then: After incubation for 1.5 h at 37 °C, the cells were washed with PBS (pH 7.4) and stained by incubation for 10 min with the dye included in the kit. Then, each well was gently washed five times with 500 µL of sterilized water; 200 µL of extraction solution were added to each well, and the cells were incubated for 10 min in an orbital shaker. Finally, change in color was measured with a plate reader at 560 nm; inhibition of adhesion in the drug-treated cells was evaluated relative to inhibition in the untreated cells (control).

In series [4] the test system is 4T1 cells. The series can be described thus: In vitro 4T1 cell invasion assay. Type of series: cell-based, murine. The following applies: 100 µg/mL ATV, 24 h. The method, then:
(§2) The in vitro inhibition of 4T1 cell invasion and migration by ATV-NEs was assessed by Cultrex® 24-well basement membrane extract cell invasion assays (Trevigen, Inc., Gaithersburg, MD, USA). Briefly, the membrane insert in each well was uniformly coated with 100 µL of 0.5× basement membrane extract and incubated for 24 h at 37 °C. Separately, uncoated wells were used for cell migration assays. Next, each coated well was washed using 1× buffer. For invasion assays, the cells in Roswell Park Memorial Institute medium with 0.5% FBS were seeded into each apical chamber at a density of 1 × 10^6 cells/well. For cell migration assays, the same number of cells was seeded in the uncoated apical compartment. Subsequently, 500 µL of Roswell Park Memorial Institute medium containing 10% FBS were loaded into the basal compartment to serve as a chemoattractant; the cells were then cultured at 37 °C. After incubation for 24 h, both apical and basal compartments were washed with 1× buffer and the basal chamber was filled with 500 µL of cell dissociation solution (calcein-AM); the cells were incubated for 1 h at 37 °C. Finally, the dissolved calcein-AM concentration was measured with a fluorescence reader at an excitation wavelength of 485 nm and emission wavelength of 520 nm.

For series [5], the system named is 4T1 cells. The series can be described thus: In vitro 4T1 cell migration assay. It is filed as cell-based, murine. The following applies: Mus musculus, 4T1, 24 h; read-out: Inhibition of 4T1 cell migration compared with untreated controls. As for the experimental part: as §2
A further series concerns 4T1 cell tumor. Description: In vivo tumor growth inhibition in 4T1 cell tumor-bearing mice. The arrangement: species or system BALB/c mice. The method, then: To evaluate the in vivo antitumor efficacy of oral ATV-NEs, 1 × 10^6 4T1 cells dispersed in 100 μL of PBS (pH 7.4) were subcutaneously inoculated into the left flanks of BALB/c mice. […] To assess tumor growth suppression, the tumor size and body weight of the mice in all groups were measured every 3 days after treatment. The tumor volume in each mouse was calculated as (width)^2 × length × 0.52. After 21 days of treatment, mice were sacrificed and tumor masses were measured.

As to `CC(C)c1c(C(=O)Nc2ccccc2)c(-c2ccccc2)c(-c2ccc(F)cc2)n1CC[C@@H](O)C[C@@H](O)CC(=O)O` [ATV in 0.5% DMSO, Atorvastatin], the “Concentration at which cytotoxic effects were exhibited” value in series [1] and in series [2] was greater than 100 µg/mL ATV throughout. For the same compound, the “4T1 cell adhesion to ECM components (in words)” value in the series with 4T1 cells [3] was “significantly decreased adhesion”. In addition, the “Decrease in 4T1 cell invasion compared with untreated controls” value with 4T1 cells [4] was determined as 31.9%. Also, the inhibition at 100 µg/mL in the series on 4T1 cells [5] was 20.3%.

`CC(C)c1c(C(=O)Nc2ccccc2)c(-c2ccccc2)c(-c2ccc(F)cc2)n1CC[C@@H](O)C[C@@H](O)CC(=O)O` [ATV in 10% DMF, Atorvastatin]: the “Tumor growth compared to untreated controls (in words)” value in the series with 4T1 cell tumor (daily oral, 40 mg/kg ATV in 10% DMF, 21 days) was “did not inhibit tumor growth”.

With `CC(C)c1c(C(=O)Nc2ccccc2)c(-c2ccccc2)c(-c2ccc(F)cc2)n1CC[C@@H](O)C[C@@H](O)CC(=O)O` [ATV-IP, Atorvastatin], the “Tumor growth inhibition compared to controls” value was 30.4% in the series with 4T1 cell tumor (once-daily IP, 5 mg/kg ATV in 10% DMF, 21 days) and 52.5% with 4T1 cell tumor (once-daily IP, 10 mg/kg ATV in 10% DMF, 21 days). Further, the “Isolated tumor mass reduction compared to controls” value in the series with 4T1 cell tumor (once-daily IP, 10 mg/kg ATV in 10% DMF, day 21) was found to be 73.8%.
